The values below are quoted from earlier work in patent US12667644B2, “Iodine-infused ultra high molecular weight polyethylene” (Biomet Manufacturing, LLC, priority 2019, dated 2026).

The data set relates to microbes.

For the substance povidone-iodine, the “minimum concentration required to achieve antimicrobial activity” value is reported as “about 2 ppm”.
